According to paper PMC8571378, “Reversion analysis reveals the in vivo immunogenicity of a poorly MHC I-binding cancer neoepitope” (Nature Communications, 2021):
No end group written: not given here.

Key:
Meth A = assay: Tumor rejection (immunization-challenge) assay; tumor growth AUC and tumor rejection score (TRS); type: in vivo, BALB/cJ mice; settings: BALB/cJ mice immunized twice, CTLA4 blockade
Protocol: Each line represents tumor growth in a single mouse (n = 5 mice per group). AUC for each group is plotted in the panel on the right. Data are presented as mean ± SD. P values were calculated using 1-way ANOVA test adjusted for multiple comparisons (Tukey’s multiple comparison test). c Several truncated versions of the 18-mer Ccdc85c^MUT peptide were tested in tumor rejection assay. BALB/cJ mice were immunized and tumor challenged. Each line represents tumor growth in a single mouse. Although mice were immunized with individual peptides, the data for multiple peptides are grouped into one with the composition of the peptides shown on the right. The tumor rejection data for individual peptides are shown in Supplementary Fig. 1. Tumor rejection score (TRS) for each neoepitope is shown in the yellow box, where five represents a complete tumor protection and zero means no tumor rejection. d On the left panel, total Area Under the Curve (AUC) scores for each group in B are plotted. […] Error bars represent standard deviation (SD). […] P values were calculated using 1-way ANOVA test adjusted for multiple comparisons. […] Matched peak lists for the “heavy” and “light” ions were extracted and monitored, while only single charge y ions were plotted. See Methods for details. f Predicted (by NetMHC4.0) and measured IC50 values of the binding of candidate precise neoepitopes of Ccdc85c^MUT to K^d are shown. […] The affinities of the MS/TRS predicted neoepitopes were also measured for D^d and L^d; measured affinities were below the level of detection.
The mutation is heterozygous and the un-mutated as well as the mutated reads are detected in the transcripts. […] All mice were challenged with the Meth A cells, and tumor rejection was monitored (Fig. 1b upper panel). […]
Area under the curve (AUC) is used as a tool to measure tumor growth. Briefly, AUC was calculated by selecting “Curves & Regression” and then “Area under curve” from the “analyze” tool, using the Prism 5.0 (GraphPad). […]

splenic CD8 T cells = assay: ELIspot for interferon γ of splenic CD8 T cells from immunized mice; type: cell-based, BALB/c mice; settings: spleens seven days after second immunization; in vitro stimulation with immunizing 18-mer, 10 µM
Text: BALB/c mice were immunized with 18-mer peptides containing Ccdc85c^MUT as well as Ccdc85c^WT as described in Methods. Spleens were harvested seven days after the second immunization and splenic CD8 T cells tested by ELIspot for interferon γ production in response to stimulation in vitro with the peptides used for immunization. […] Since the CD8 response detected in vitro was so modest, CD8 response as detected in vivo in the tumor microenvironment became our focus.
Supplementary Fig. 3. CD8 response to Ccdc85cMUT and Ccdc85cWT peptides. BALB/c mice were immunized twice at a weekly interval with 18-mer peptides containing Ccdc85cWT (left) or Ccdc85cMUT (right) as described in Methods. Spleens were harvested seven days after the second immunization and CD8 T cells stimulated in vitro with the peptides (10 µM concentration) used for immunization, as indicated. CD8 cells were analyzed for release of interferon g. Each dot represents a single mouse. The P values were calculated using two tailed t-test. Data are presented as mean values +/- SD. […]

H2-A^d = assay: MHC II cell-surface density assay, H2-A^d; type: cell-based, mouse; settings: NIH3T3 cells, flow cytometry 48 h after transduction; peptides adjusted to 12-mer with N-terminal glycines; MUT vs WT counterpart
Text: (§1) In order to determine if any peptides within Ccdc85c^MUT could be presented by MHC II molecules, we analyzed the interaction of H2-A^d and H2-E^d with […], […] and IRPFETKVK as well as their wild type counterparts, using a cell-surface density assay. In this assay, β-chains of H2-Ab1^d or H2-Eb1^d are expressed in fusion with the peptide of interest and the amount of cell-surface MHC II, as a measure of intrinsic stability of MHC II, is quantified in engineered conditions. The measured cell-surface MHC density correlates well with the actual affinity of the peptide to MHC II. […] This was observed when CD4 depletion was carried out during the priming phase alone (as in Supplementary Fig. 2b), or throughout the entire experiment including the effector phase (i.e. post tumor challenge).
(§2) MHC II-peptide binding analysis was conducted by cell-surface density assay[18] with modifications. […] Cell-surface expression of H2-A^d or H2-E^d and cytoplasmic expression of GFP in GFP^+ MHC^+ cells were measured by flow cytometry 48 h after the transduction, using the following antibodies: H2-A^d, anti-mouse I-A^d mAb with the dilution of 1:10, 20 μl per sample (39-10-8, BioLegend) or mouse IgG3 isotype control with the dilution of 1:100, 10 μl per sample (m078-3, clone 6A3, Medical & Biological Laboratories Co. Ltd.) and goat anti-mouse IgG3-PE with the dilution of 1:20, 15 μl per sample (sc-3767, Santa Cruz Biotechnology, Inc.); H2-E, anti-I-E^d mAb with the dilution of 1:40, 10 μl per sample (115002, 14-4-4 S, Thermo Fisher) or mouse IgG2a isotype control with the dilution of 1:10, 10 μl per sample (m076-3, clone 6H3, Medical & Biological Laboratories Co. Ltd.) and goat F(ab’)2 Anti-mouse Ig-PE with the dilution of 1:20, 20 μl per sample (1012-09, Southern Biotechnology Associates Inc.). The ratio of MHC MFI to GFP MFI (MHC/GFP) for each MHC II-peptide combination was calculated and normalized to the MHC/GFP for respective MHC II allele-G9 peptide. On each assay date, MHC/GFP for each MHC II-peptide combination was measured for three or four wells and their average was determined. […]

H2-E^d = assay: MHC II cell-surface density assay, H2-E^d; type: cell-based, mouse; settings: NIH3T3 cells, flow cytometry 48 h after transduction; peptides adjusted to 12-mer with N-terminal glycines; MUT vs WT counterpart
Text: as §1, §2

K^d = molecular target: T1, K^d (Mus musculus, UniProt P01902); assay: Measured peptide binding to K^d
T1 sequence (P01902 22-368): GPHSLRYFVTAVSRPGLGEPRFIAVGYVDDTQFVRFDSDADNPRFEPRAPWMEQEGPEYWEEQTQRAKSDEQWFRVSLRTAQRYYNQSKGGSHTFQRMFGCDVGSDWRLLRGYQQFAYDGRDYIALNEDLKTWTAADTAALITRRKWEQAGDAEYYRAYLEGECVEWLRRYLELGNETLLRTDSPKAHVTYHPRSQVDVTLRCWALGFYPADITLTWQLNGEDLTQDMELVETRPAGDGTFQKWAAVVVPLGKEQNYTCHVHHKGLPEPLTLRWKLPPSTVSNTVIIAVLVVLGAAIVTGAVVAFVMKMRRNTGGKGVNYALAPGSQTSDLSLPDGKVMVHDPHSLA
T1 sequence (P01887 21-119 partner): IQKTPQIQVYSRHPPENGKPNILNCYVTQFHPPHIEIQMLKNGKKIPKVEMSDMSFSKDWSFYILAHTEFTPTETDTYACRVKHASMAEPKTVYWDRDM
Protocol: Each line represents tumor growth in a single mouse (n = 5 mice per group). AUC for each group is plotted in the panel on the right. Data are presented as mean ± SD. P values were calculated using 1-way ANOVA test adjusted for multiple comparisons (Tukey’s multiple comparison test). c Several truncated versions of the 18-mer Ccdc85c^MUT peptide were tested in tumor rejection assay. BALB/cJ mice were immunized and tumor challenged. Each line represents tumor growth in a single mouse. Although mice were immunized with individual peptides, the data for multiple peptides are grouped into one with the composition of the peptides shown on the right. The tumor rejection data for individual peptides are shown in Supplementary Fig. 1. Tumor rejection score (TRS) for each neoepitope is shown in the yellow box, where five represents a complete tumor protection and zero means no tumor rejection. d On the left panel, total Area Under the Curve (AUC) scores for each group in B are plotted. […] Error bars represent standard deviation (SD). The P values corresponding to the comparison of TRS = 0 with TRSs 5.0, 4.0–4.5 and 3.0–3.3 were respectively <0.0001, <0.0001 and 0.0002. P values were calculated using 1-way ANOVA test adjusted for multiple comparisons. On the right, peptides with the highest and the lowest TRS are shown. e Targeted MS-based detection of TYIRPFETKVK and YIRPFETKVK among MHC I peptides eluted from BMDCs pulsed with the 18-mer Ccdc85c^MUT. Heavy labeled synthetic peptides were spiked into the peptide samples; the labeled amino acid is marked with a bold character and the mutation is in red. Matched peak lists for the “heavy” and “light” ions were extracted and monitored, while only single charge y ions were plotted. See Methods for details. f Predicted (by NetMHC4.0) and measured IC50 values of the binding of candidate precise neoepitopes of Ccdc85c^MUT to K^d are shown. […] The affinities of the MS/TRS predicted neoepitopes were also measured for D^d and L^d; measured affinities were below the level of detection.

D^d = assay: Measured peptide binding to D^d; parameters: species or system mouse
Protocol: (§3) Each line represents tumor growth in a single mouse (n = 5 mice per group). AUC for each group is plotted in the panel on the right. Data are presented as mean ± SD. P values were calculated using 1-way ANOVA test adjusted for multiple comparisons (Tukey’s multiple comparison test). c Several truncated versions of the 18-mer Ccdc85c^MUT peptide were tested in tumor rejection assay. BALB/cJ mice were immunized and tumor challenged. Each line represents tumor growth in a single mouse. Although mice were immunized with individual peptides, the data for multiple peptides are grouped into one with the composition of the peptides shown on the right. The tumor rejection data for individual peptides are shown in Supplementary Fig. 1. […] P values were calculated using 1-way ANOVA test adjusted for multiple comparisons. […] Matched peak lists for the “heavy” and “light” ions were extracted and monitored, while only single charge y ions were plotted. See Methods for details. f Predicted (by NetMHC4.0) and measured IC50 values of the binding of candidate precise neoepitopes of Ccdc85c^MUT to K^d are shown. […] The affinities of the MS/TRS predicted neoepitopes were also measured for D^d and L^d; measured affinities were below the level of detection.

L^d = assay: Measured peptide binding to L^d; parameters: species or system mouse
Protocol: as §3

Sequence | tumor rejection (in words) (Meth A) | CD8 response (interferon γ ELIspot) (splenic CD8 T cells) | binding of Ccdc85c^MUT versus Ccdc85c^WT to H2-IA (MHC/GFP normalized to G9) (H2-A^d) | binding of Ccdc85c^MUT versus Ccdc85c^WT to H2-IE (MHC/GFP normalized to G9) (H2-E^d) | IC50 (K^d; assay kind not described) [µM] | measured affinity for K^d (in words) (K^d) | measured affinity for D^d (D^d) | measured affinity for L^d (L^d)
DPSSTYIRPLETKVKLLD [un-mutated peptide, un-mutated 18-mer peptide of Ccdc85c] | failed to elicit protection | no CD8 response | – | – | – | – | – | –
IRPFETKVK [truncated version of the 18-mer Ccdc85c^MUT peptide] | – | – | No significant difference | No significant difference | – | – | – | –
TYIRPFETKV [TYIRPFETKV] | – | – | – | – | 0.247 | – | – | –
TYIRPFETKVK | – | – | No significant difference | No significant difference | – | very low or undetectable | very low or undetectable | very low or undetectable
YIRPFETKVK | – | – | No significant difference | No significant difference | – | very low or undetectable | very low or undetectable | very low or undetectable
